In US10946036B2, “Use of myostatin inhibitors and combination therapies” (Scholar Rock, Inc., priority 2016, dated 2021):
“Also recorded” adds a separate entry of the source. Where two headings read alike, the source gives them in different places.

Legend:
[1] = target: murine proMyostatin; assay: Binding to murine proMyostatin; design: species or system mouse
[2] = tested on: GDF11; assay: Binding specificity: GDF11; conditions: any form of GDF11
[3] = tested on: Activin A; assay: Binding specificity: Activin A; conditions: any form
[4] = target: T1, mature BMP9 (Homo sapiens, UniProt Q9UK05); assay: Binding specificity: mature BMP9
T1 sequence (Q9UK05 320-429): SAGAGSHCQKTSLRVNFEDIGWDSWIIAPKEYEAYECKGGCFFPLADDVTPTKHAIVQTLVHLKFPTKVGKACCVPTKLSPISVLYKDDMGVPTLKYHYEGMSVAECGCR

[5] = target: T2, mature BMP10 (Homo sapiens, UniProt O95393); assay: Binding specificity: mature BMP10
T2 sequence (O95393 317-424): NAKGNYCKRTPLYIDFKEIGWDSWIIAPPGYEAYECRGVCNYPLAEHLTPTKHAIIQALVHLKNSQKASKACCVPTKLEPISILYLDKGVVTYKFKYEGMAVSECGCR

[6] = target: mature TGFβ1 (Homo sapiens, UniProt P01137); assay: Binding specificity: mature TGFβ1
[7] = target: mature GDF-8 (Homo sapiens, UniProt O14793); assay: Binding specificity: mature GDF-8
Experimental: In some embodiments, suitable dosage of SRK-015 for administration in human patients for the treatment of SMA ranges between 1 and 30 mg/kg, e.g., 1-5 mg/kg, 3-5 mg/kg, 3-10 mg/kg, 5-10 mg/kg, 5-15 mg/kg, 5-20 mg/kg, 10-20 mg/kg, etc. In some embodiments, the patient is administered SRK-015 once a week, once every two weeks, once every three weeks, once a month, once every six weeks, etc.

[8] = target: T3, proMyostatin (Homo sapiens, UniProt O14793); assay: proMyostatin activation assay, Smad2/3 luciferase reporter cell line; type: cell-based; conditions: proMyostatin incubated with furin and mTTL-2 proteases
T3 construct: made in house; host or cells: mammalian expression system
Excerpt: (§1) Antibody SRK-015P (“P” for parental) was optimized to generate SRK-015, a fully human monoclonal antibody. SRK-015 differs from its parental clone by five residues in the variable domain outside the complementarity determining region. […] Both SRK-015 and SRK-015P had similar functional activity towards human and mouse proMyostatin in the reporter assay such that EC50 values for the two antibodies in proMyostatin activation assay using human and mouse proMyostatin, are similar. […] The ability of SRK-015 to bind the myostatin prodomain and to inhibit tolloid cleavage has been shown. Purified recombinant latent myostatin was incubated with TLL-2 tolloid protease in the presence of increasing concentrations of SRK-015. Samples were separated by reducing SDS-PAGE and probed by Western blot with an antibody that recognizes the myostatin prodomain.

[9] = target: T3, proMyostatin; assay: proMyostatin activation reporter assay, human proMyostatin; type: cell-based
Excerpt: as §1

[10] = target: T4, mouse proMyostatin (Mus musculus, UniProt O08689); assay: proMyostatin activation reporter assay, mouse proMyostatin; type: cell-based
T4 construct: made in house; host or cells: mammalian expression system
Excerpt: as §1

[11] = target: proGDF11 (Homo sapiens, UniProt O95390); assay: Protease activity reporter assay using proGDF11 as substrate; type: cell-based
[12] = target: mature myostatin (Homo sapiens, UniProt O14793); assay: Mature myostatin signaling in Smad2/3 reporter assay; type: cell-based
[13] = target: T5, latent myostatin (Homo sapiens, UniProt O14793); assay: TLL-2 tolloid cleavage of latent myostatin, Western blot; type: biochemical; conditions: increasing antibody concentrations
T5 construct: Following cleavage, the growth factor and prodomain remain associated, forming a latent complex (latent myostatin)
Excerpt: as §1

[14] = tested on: healthy male mice; assay: Muscle mass in healthy mice after single dose; type: in vivo, mouse; conditions: single 20 mg/kg dose, after 15 days
Excerpt: (§2) FIG. 2A and FIG. 2B provide a summary of dexamethasone-induced atrophy in mice: FIG. 2A illustrates the experimental model of single-dose SRK-015 treatment in healthy and atrophy-induced mice; FIG. 2B provides changes in gastrocnemius muscle weights measured at the indicated time points.
(§3) SRK-015 increased muscle mass in healthy animals and reduced muscle loss in a dexamethasone-induced model of atrophy. […] SRK-015 was also effective in preventing muscle loss upon dexamethasone treatment.

[15] = tested on: dexamethasone treated mice; assay: Dexamethasone-induced muscle atrophy in mice; type: in vivo, mouse
Excerpt: as §2, §3

[16] = Pharmacokinetics in scid mice, anti-human IgG ELISA; type: in vivo, mouse; conditions: single 5 mg/kg IV dose, serum
Experimental: (§4) Male scid mice were administered a single 5 mg/kg IV dose of SRK-015. Separate cohorts of mice were sacrificed 4 hours, 2, 8, 15, 22, 29, and 56 days post dose, and serum and TA muscles collected for PK and target engagement assays. N=4 or 8 per group. SRK-015 levels were determined from serum samples taken at the indicated times after dosing. Analysis was performed using an anti-human IgG ELISA. The half-life of SRK-015 in scid mice at 5 mg/kg was ˜20.3 days.

[17] = tested on: scid mice; assay: Lean mass by qNMR in scid mice; type: in vivo, mouse; conditions: single 5 mg/kg dose
Experimental: as §4
(§5) Lean mass was measured with qNMR at the indicated timepoints after dosing. […] Target engagement was assessed by analyzing levels of latent myostatin in serum and muscle using western blot. Binding to SRK-015 results in accumulation of latent myostatin as the bound target assumes the half-life of the antibody and accumulates in circulation and in the target tissues. […] Samples from three mice from each cohort were analyzed.

[18] = target: T6, latent myostatin (Mus musculus, UniProt O08689); assay: Target engagement in serum and muscle of scid mice, western blot; type: in vivo; conditions: single 5 mg/kg dose
T6 construct: from tissue; host or cells: mouse serum and tibialis anterior muscle
Experimental: as §4, §5

[19] = Pharmacokinetics in cynomolgus monkeys, ELISA; type: in vivo; conditions: for T1/2: post-dosing period
Experimental: (§6) SRK-015 PK properties were also determined in cynomolgus monkeys. Two- to three-year old male animals (average age 34 months) were administered weekly doses of 3 mg/kg or 30 mg/kg SRK-015 for 8 weeks. Following the last dose, animals were followed for an additional five weeks in the absence of drug administration. Samples from this post-dosing period were used to calculate PK parameters. […] Antibody levels were assessed by ELISA.

[20] = tested on: cynomolgus monkeys; assay: Muscle weights in cynomolgus monkeys; type: in vivo
Experimental: as §6
(§7) At study termination animals were sacrificed five weeks after the last dose as described in above and muscle weights were determined. Gastrocnemius and Biceps brachii muscles (FIG. 10A and FIG. 10B, respectively) show increased mass following SRK-015 treatment. Gastrocnemius weights increased 21% in the 3 mg/kg groups, and 23% in the 30 mg/kg groups relative to vehicle control. * indicates statistically significant difference from vehicle by one-way ANOVA; P<0.007. Biceps brachii weights increased 18% in the 3 mg/kg groups, and 25% in the 30 mg/kg group relative to vehicle control. * indicates statistically significant difference from vehicle by one-way ANOVA; P<0.02. […] Serum samples were collected at the indicated study day and analyzed by semi-quantitative western blot analysis. Accumulation of latent myostatin, indicative of SRK-015 binding, is evident by day 8. Target continues to accumulate as additional doses are administered. Latent myostatin levels were quantified as described in Example 7 above. The effects of SRK-015 on muscle weight indicate that even at lower end of dosage (e.g., 3 mg/kg/week) SRK-015 is at or near the level of target engagement necessary for maximal efficacy.

[21] = target: T7, latent myostatin (Macaca fascicularis, UniProt Q95J86); assay: Target engagement in cynomolgus serum, semi-quantitative western blot; type: in vivo, cynomolgus monkeys; conditions: 3 mg/kg or 30 mg/kg weekly
T7 construct: from tissue; host or cells: cynomolgus monkey serum
Experimental: as §7

[22] = tested on: Δ7 mice; conditions: 0.1 mg/kg/day from birth; cited from earlier work
[23] = tested on: preclinical models of SMA (mice); conditions: cited from earlier work; for blood brain barrier (BBB) crossing: mouse, in vivo; for SMN protein levels compared to vehicle: oral dosing, brain and muscle
[24] = tested on: infantile-onset SMA (type I) patients; conditions: cited from earlier work
[25] = tested on: Type II SMA patients; conditions: cited from earlier work; for HFMSE score increase relative to placebo group: mean
[26] = tested on: SMA patients; conditions: human, in vivo; cited from earlier work
[27] = in vivo; cited from earlier work
[28] = 3 mg/kg weekly x8, five weeks after last dose
[29] = 30 mg/kg weekly x8, five weeks after last dose

Chain of mature TGFβ1 (P01137 279-390 limits assumed): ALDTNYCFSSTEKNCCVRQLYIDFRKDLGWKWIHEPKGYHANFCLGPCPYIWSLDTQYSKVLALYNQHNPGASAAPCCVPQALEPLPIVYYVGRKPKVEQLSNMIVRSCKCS
Chain of proGDF11 (O95390 299-407): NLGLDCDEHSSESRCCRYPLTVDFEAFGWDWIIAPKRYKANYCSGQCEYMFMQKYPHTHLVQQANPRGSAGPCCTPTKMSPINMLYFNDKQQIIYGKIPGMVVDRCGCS

Molecule: SRK-015: fully human monoclonal antibody optimized from SRK-015P; binds pro/latent myostatin and inhibits release of mature growth factor
- Kd [1]: 8.35 nM
- binding to GDF11 [2]: does not bind; also recorded: no detectable binding
- binding to Activin A [3]: no detectable binding
- binding to mature BMP9 [4]: no detectable binding
- binding to mature BMP10 [5]: no detectable binding
- binding to mature TGFβ1 [6]: no detectable binding
- binding to mature GDF-8 [7]: does not bind
- release of mature myostatin, measured by luciferase expression [8]: inhibited release of mature myostatin
- EC50 in proMyostatin activation assay, the two antibodies compared [9]: similar
- EC50 in proMyostatin activation assay, the two antibodies compared [10]: similar
- effect in protease activity assay with proGDF11 [11]: no effect
- inhibition of mature myostatin signaling [12]: did not inhibit
- tolloid-mediated cleavage of latent myostatin [13]: inhibited the second (tolloid-mediated) proteolysis step
- increase in muscle mass versus IgG control [14]: 17.5%
- muscle atrophy under dexamethasone ([15]; single 20 mg/kg dose, throughout the study): prevented muscle atrophy
- half-life [16]: ~20.3 days
- lean mass relative to IgG control [17]: significant increase in lean mass
- onset of significant target engagement in circulation [18]: within four hours
- onset of significant target engagement in muscle [18]: within two days
- target engagement at 56 days post-dosing [18]: no longer observed
- target engagement sustained out to [18]: 29 days post dose
- AUClast ([19]; 3 mg/kg weekly for 8 weeks): 60799 hr▪ng/ml
- Cmax ([19]; 3 mg/kg weekly for 8 weeks): 243 ng/mL
- Tmax ([19]; 3 mg/kg weekly for 8 weeks): 51 h
- T1/2 ([19]; 3 mg/kg weekly for 8 weeks): 12.4 h
- AUClast ([19]; 30 mg/kg weekly for 8 weeks): 1070638 hr▪ng/ml
- Cmax ([19]; 30 mg/kg weekly for 8 weeks): 2648 ng/mL
- Tmax ([19]; 30 mg/kg weekly for 8 weeks): 15 h
- T1/2 ([19]; 30 mg/kg weekly for 8 weeks): 22.2 h
- Biceps brachii weight increase relative to vehicle control [20, 28]: 18%
- Gastrocnemius weight increase relative to vehicle control [20, 28]: 21%
- Biceps brachii weight increase relative to vehicle control [20, 29]: 25%
- Gastrocnemius weight increase relative to vehicle control [20, 29]: 23%
- target engagement in serum [21]: engaged latent myostatin at both doses tested
- accumulation of latent myostatin evident by ([21]; serum): ≤ 8 days

Molecule: Cc1cn2cc(-c3cc4ccc(N5CCN(C)CC5)cc4c(=O)o3)nc2c(C)n1 [SMN-C1]
- treated mice surviving to post-natal day (PND) 52 [22]: 70%

Molecule: CCN1CCN(c2ccc3cc(-c4cn5cc(C)nc(C)c5n4)c(=O)oc3c2)C[C@@H]1C [SMN-C2]
- blood brain barrier (BBB) crossing [23]: efficiently crossed the blood brain barrier
- SMN protein levels compared to vehicle [23]: increased SMN protein levels in both brain and muscle tissues

Molecule: nusinersen
- treated patients able to sit unaided ([24]; Type I patients): five of 81
- patients reported to be non-responders ([24]; infantile-onset SMA (type I)): 60%
- treated patients with improvements in motor milestones (Hammersmith Infant Neurological Examination) ([24]; interim analysis, 0% placebo): 41%
- patients not attaining at least 3-point HFMSE improvement ([25]; in vivo): 43%
- HFMSE score increase relative to placebo group [25]: 5.9 points
- HFMSE score increase relative to placebo group ([25]; listed as Nusinersen): less than 6 points
- compound muscle action potential (CMAP) amplitudes [26]: improvements

Molecule: CC1(C)CC(Oc2ccc(-c3ccc(-c4cn[nH]c4)cc3O)nn2)CC(C)(C)N1 [LMI070]
- preclinical toxicity findings [27]: injuries to the peripheral nerves and spinal cord, testes, and blood vessels in the kidney

Molecule: C[C@@H]1C[C@H]2[C@@H]3CCC4=CC(=O)C=C[C@]4(C)[C@@]3(F)[C@@H](O)C[C@]2(C)[C@@]1(O)C(=O)CO [dexamethasone, reference compound]
- loss of muscle mass, IgG vehicle versus IgG Dex ([15]; chronic administration, by day 8): 16%

Molecule: CCN1CCC(c2cc(C)c3nc(-c4cc5c(C)nc(C)cn5n4)cc(=O)n3c2)CC1 [SMN-C3]
- blood brain barrier (BBB) crossing [23]: efficiently crossed the blood brain barrier
- SMN protein levels compared to vehicle [23]: increased SMN protein levels in both brain and muscle tissues

Molecule: CCc1nc(C)cn2nc(-c3cc(=O)n4cc(C5CCN(C)CC5)cc(C)c4n3)cc12 [RG7800]
- blood brain barrier (BBB) crossing [23]: efficiently crossed the blood brain barrier
- SMN protein levels compared to vehicle [23]: increased SMN protein levels in both brain and muscle tissues
